Results reported in ChEMBL document CHEMBL4017496 (J Med Chem, 2017).
Calls of active or inactive are those of the source. The calls are words filed in the database; no cut-off is given here.

Target: T1, Glucocorticoid receptor (Homo sapiens) (UniProt P04150)
T1 sequence (whole entry): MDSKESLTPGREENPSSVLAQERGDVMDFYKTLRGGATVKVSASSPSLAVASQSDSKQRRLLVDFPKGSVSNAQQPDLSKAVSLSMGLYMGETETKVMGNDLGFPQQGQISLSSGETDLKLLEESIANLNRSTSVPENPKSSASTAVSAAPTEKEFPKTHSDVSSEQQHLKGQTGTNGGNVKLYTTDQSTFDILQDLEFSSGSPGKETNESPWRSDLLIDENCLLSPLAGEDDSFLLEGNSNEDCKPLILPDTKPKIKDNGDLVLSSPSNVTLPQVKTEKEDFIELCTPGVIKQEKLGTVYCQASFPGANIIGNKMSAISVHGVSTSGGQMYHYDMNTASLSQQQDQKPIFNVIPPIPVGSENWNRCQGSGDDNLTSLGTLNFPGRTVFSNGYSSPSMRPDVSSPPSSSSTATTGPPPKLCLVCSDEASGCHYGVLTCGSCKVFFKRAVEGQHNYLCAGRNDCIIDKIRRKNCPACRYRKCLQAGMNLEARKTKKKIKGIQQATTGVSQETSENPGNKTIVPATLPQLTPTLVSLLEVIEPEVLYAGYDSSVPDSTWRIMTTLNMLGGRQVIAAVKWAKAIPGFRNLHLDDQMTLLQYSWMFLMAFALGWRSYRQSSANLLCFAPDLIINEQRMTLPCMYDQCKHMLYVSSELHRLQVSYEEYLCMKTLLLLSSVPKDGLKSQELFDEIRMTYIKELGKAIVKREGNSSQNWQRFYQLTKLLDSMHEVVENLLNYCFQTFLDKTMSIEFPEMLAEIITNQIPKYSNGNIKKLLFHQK
Assay: Displacement of Fluormone-GS1 from human GST-tagged glucocorticoid receptor LBD at 4 uM by TR-FRET assay

CNC(=O)[C@H]1O[C@@H](n2cnc3c(NCc4cccc(I)c4)ncnc32)[C@H](O)[C@@H]1O [IB-MECA] was tested, and the inhibition was “inactive”.
